The values that follow are results of earlier work, collected in US11136546B2, “Recombinant Escherichia coli and application of the same” (Zhengzhou Zhonghao Biological Technology Co., Ltd., priority 2018, dated 2021).

Where no end group is shown, it is not given here.

One data set deals with pathogenic E. coli. The settings on record: in vitro bacteriostatic tests; a variety of pathogenic E. coli.
The test system of the next data set is Salmonella. The settings on record: in vitro bacteriostatic tests.

Consider “Microcin J25: antibacterial lasso peptide consisting of 21 amino acids (SEQ ID No.: 4), obtained by fermentation of genetically engineered Escherichia coli (GGAGHVPEYFVGIGTPISFYG; also: lasso cyclisation, places not given here)”, for which the “killing of pathogenic E. coli” value in the data set with pathogenic E. coli is on record as “able to kill”. Further, the “killing of Salmonella” value in the data set on Salmonella was “able to kill”.
